# Legend:
# [1] = test system: Micrococcus luteus ATCC9341; test: Paper disc assay, Micrococcus luteus; type: cell-based; conditions: column 1
# Escherichia coli NIHJ = test: Paper disc assay, Escherichia coli; type: cell-based; conditions: c
# Description: (2) Antibacterial activities against other bacteria were determined with Micrococcus luteus ATCC9341 (1), Bacillus subtilis […] (s), Escherichia coli NIHJ (c), Xanthomonas campestris KB88 (X), Mucor racemosus IFO 4581 (Mu) and Candida albicans ATCC 64548 (Ca).
# Bacillus subtilis ATCC6633 was incubated in Davis synthetic medium and then the seed broth was combined with the medium in the ratio of 1:99 to obtain a test plate. Micrococcus luteus ATCC9341, Escherichia coli NIHJ and Xanthomonas campestris KB88 were respectively incubated in Nutrient agar medium and inoculated at 0.2%, 0.5% and 1.0%. Mucor racemosus IFO 4581 and Candida albicans ATCC 64548 were respectively incubated in GY agar medium and then inoculated at 0.3% and 0.2%.
# A paper disc (ADVANTEC, Φ:6 mm) was impregnated with a solution of test compound and dried under reduced pressure. The paper disc was put on the test plate and it was incubated for 24 hours at 37° C. After incubation, the inhibition zone diameter and clarity (A to E) were determined.
# [2] = test system: M. hemolytica KB346 (Tilmicosin-low sensitivity strain); test: Paper disc assay, M. hemolytica KB346; type: cell-based, Mannhemia hemolytica; conditions: 10 mg/6 mm disk; Table 5
# Description: (1) Antibacterial activities against Mannheimia and Pasteurella were determined by the following steps: • 1) M. hemolytica KB345 (Tilmicosin-sensitivity strain) and M. hemolytica KB346 (Tilmicosin-low sensitivity strain) were provided. KB 345 strain stored at −80° C. was seeded to BHIB agar medium (10 mL) by using Microbank beads (Pro-Lab) and platinum nail. After statically incubating the KB 345 strain for 24 hours at 37° C., it was seeded to maintaining slant BHIB agar medium (7 mL) by using platinum loop, further statically incubated for 24 hours at 37° C. to obtain slant. One platinum loop of KB 345 strain stored at the slant was inoculated into a large test tube charged with BHIB liquid medium (10 mL) and then incubated for 24 hours at 37° C. with shaking. • 2) A paper disc (ADVANTEC, Φ:6 mm) was impregnated with a solution of test compound and dried under reduced pressure. • 3) To a melted BHIB agar medium was inoculated 1% of the broth obtained from step 1) above to prepare a test plate. After the medium set, the paper disc prepared in step 2) above was put on the plate and it was incubated at 37° C. • 4) After one day, the inhibition zone diameter and clarity (A to E) were determined. For KB346 strain, the same procedures were repeated.
# [3] = test system: Xanthomonas campestris KB88; test: Paper disc assay, Xanthomonas campestris; type: cell-based; conditions: X
# [4] = test system: Bacillus subtilis ATCC6633; test: Paper disc assay, Bacillus subtilis; type: cell-based; conditions: S
smiles,measurement,setting,value
"CC[C@H]1OC(=O)C[C@@H](O)[C@H](C)[C@@H](O[C@@H]2O[C@H](C)[C@@H](O)[C@H](N(C)C)[C@H]2O)[C@@H](CCN2C[C@H](C)C[C@H](C)C2)C[C@@H](C)C(=O)/C=C/C(C)=C/[C@@H]1CO[C@@H]1O[C@H](C)[C@@H](O)[C@@H](OC)[C@H]1OC [Tilmicosin, tilmicosin, reference compound]",Inhibition zone,[1]; 0.1 mg/6 mm disc,12 mm
same,Inhibition zone,[1]; 1 mg/6 mm disc,19 mm
same,Inhibition zone,[1]; 10 mg/6 mm disc,27.5 mm
same,Inhibition zone,Escherichia coli NIHJ; 1 mg/6 mm disc,13 mm
same,Inhibition zone,Escherichia coli NIHJ; 10 mg/6 mm disc,20 mm
same,Inhibition zone,[2],11.0 mm
same,Inhibition zone,[3]; 0.1 mg/6 mm disc,12 mm
same,Inhibition zone,[3]; 1 mg/6 mm disc,20 mm
same,Inhibition zone,[3]; 10 mg/6 mm disc,30 mm
same,Inhibition zone,[4]; 0.1 mg/6 mm disc,14 mm
same,Inhibition zone,[4]; 1 mg/6 mm disc,11 mm
same,Inhibition zone,[4]; 10 mg/6 mm disc,18 mm

# Source: patent publication US9771389B2, “Tylosin derivatives and method for preparation thereof” (BAYER ANIMAL HEALTH GMBH, priority 2013, dated 2017)
